Results reported in patent US9877956B2, “Antiviral compounds and methods of use thereof” (Trana Discovery, Inc., priority 2014, dated 2018).
Converted amounts (≈) assume the structure as drawn. “And” between values parts separate entries of the source, which are not always exact repeats. Equal values may be shown once.

What was measured:
Format in all cases: cell-based
[1] = test system: HUMAN PBMCS; test: Cytotoxicity in human PBMCs (XTT); details: for TOXICITY VALUES (XTT - O.D. @ 450/650 nm), SAMPLE: individual samples, listed as Trana 156
Description: (§1) In these studies, PHA-P stimulated PBMCs from three donors were pooled together and re-suspended in fresh tissue culture medium at 1×10^6 cells/mL and plated in the interior wells of a 96 well round bottom microplate at 50µl/well. A 100µL volume of 9 concentrations of compound serially diluted were transferred to the round-bottom 96 well plate containing the cells in triplicate. Fifty microliters (µL) of HIV-1 at a pre-determined dilution was added. Each plate contained cell control wells and virus control wells in parallel with the experimental wells. After 7 days in culture, efficacy was evaluated by measuring the reverse transcriptase in the culture supernatants and the cells were stained with the tetrazolium dye XTT to evaluate cytotoxicity.

[2] = test system: HIV-1 92/HT/599; test: HIV-1 92/HT/599 replication in human PBMCs, reverse transcriptase in culture supernatants (RLU); details: for RLU (Relative Light Units), SAMPLE: individual samples, listed as Trana 156
Description: as §1

[3] = Toxicity in PBMC (Cell Titer 96); details: human, peripheral blood mononuclear cells (PBMC); PBMC, Cell Titer 96
Text: (§2) These compounds were further screened for activity in HIV-1-infected peripheral blood mononuclear cells (PBMC). The data (experiments were repeated, so duplicates are shown) is summarized in the tables below, and also in FIGS. 4A-B and 5A-B.

[4] = test system: PBMC; test: Toxicity in PBMC (Cell Titer 96); details: for % CC: O.D. relative to cell control; for TOXICITY VALUES (Cell Titer 96 - O.D. @ 490/650 nm), SAMPLE: individual samples
Text: as §2

[5] = test system: HIV-1/Ba-L; test: Inhibition of HIV-1 Ba-L replication in PBMC (RT values); details: for % VC: RT relative to virus control; for RT Values (cpm), SAMPLE: individual samples
Description: as §2
The HIV strain was HIV-1/Ba-L. The titer was 0.1 μL/well.

[6] = Human immunodeficiency virus 1, BAL, PBMC, HIV-1 Ba-L in PBMC

## CC1(C)OC(=O)C(=Cc2ccc(I)o2)C(=O)O1 [HIT #156]
[1]; 0.32 μg/ml
  % Cell Viability: 97.66%
  Cytotoxicity Test Values Mean OD @ 450/650 nm: 1.094 OD
  TOXICITY VALUES (XTT - O.D. @ 450/650 nm), SAMPLE: 1.0465 O.D. (2×) and 1.1893 O.D.
[1]; 1 μg/ml
  % Cell Viability: 99.50%
  Cytotoxicity Test Values Mean OD @ 450/650 nm: 1.115 OD
  TOXICITY VALUES (XTT - O.D. @ 450/650 nm), SAMPLE: 1.1281 O.D. (2×) and 1.0879 O.D.
[1]; 3.16 μg/ml
  % Cell Viability: 87.52%
  Cytotoxicity Test Values Mean OD @ 450/650 nm: 0.980 OD
  TOXICITY VALUES (XTT - O.D. @ 450/650 nm), SAMPLE: 0.9762 O.D. (2×) and 0.9889 O.D.
[1]; 9.99 μg/ml
  % Cell Viability: 89.00%
  Cytotoxicity Test Values Mean OD @ 450/650 nm: 0.997 OD
  TOXICITY VALUES (XTT - O.D. @ 450/650 nm), SAMPLE: 1.1309 O.D. (2×) and 0.7293 O.D.
[1]; 31.6 μg/ml
  % Cell Viability: 12.90%
  Cytotoxicity Test Values Mean OD @ 450/650 nm: 0.145 OD
  TOXICITY VALUES (XTT - O.D. @ 450/650 nm), SAMPLE: 0.1469 O.D. (2×) and 0.1399 O.D.
[1]; 100 μg/ml
  % Cell Viability: 14.76%
  Cytotoxicity Test Values Mean OD @ 450/650 nm: 0.165 OD
  TOXICITY VALUES (XTT - O.D. @ 450/650 nm), SAMPLE: 0.1657 O.D. (2×) and 0.1646 O.D.
[1]; human PBMCs, XTT
  TC 25%: 12.3 µg/mL (≈ 35.3 µM)
  TC50 (TC 50%): 18.0 µg/mL (≈ 51.7 µM)
  TC 95%: <100 µg/mL
[2]; 0.32 μg/ml
  % Virus Control: 93.58%
  Antiviral Test Values Mean RLU: 18048.7 RLU
  RLU (Relative Light Units), SAMPLE: 9520.0 RLU and 22416.0 RLU and 22210.0 RLU
[2]; 1 μg/ml
  % Virus Control: 110.39%
  Antiviral Test Values Mean RLU: 21291.7 RLU
  RLU (Relative Light Units), SAMPLE: 24338.0 RLU and 22848.0 RLU and 16689.0 RLU
[2]; 3.16 μg/ml
  % Virus Control: 62.76%
  Antiviral Test Values Mean RLU: 12105.7 RLU
  RLU (Relative Light Units), SAMPLE: 9530.0 RLU and 14041.0 RLU and 12746.0 RLU
[2]; 9.99 μg/ml
  % Virus Control: 4.15%
  Antiviral Test Values Mean RLU: 800.0 RLU
  RLU (Relative Light Units), SAMPLE: 138.0 RLU and 48.0 RLU and 2214.0 RLU
[2]; 31.6 μg/ml
  % Virus Control: 0.21%
  Antiviral Test Values Mean RLU: 41.3 RLU
  RLU (Relative Light Units), SAMPLE: 46.0 RLU and 42.0 RLU and 36.0 RLU
[2]; 100 μg/ml
  % Virus Control: 0.31%
  Antiviral Test Values Mean RLU: 60.7 RLU
  RLU (Relative Light Units), SAMPLE: 68.0 RLU and 62.0 RLU and 52.0 RLU
[2]; HIV-1 92/HT/599, human PBMCs
  EC 25%: 2.35 µg/mL (≈ 6.75 µM)
  EC 95%: 9.82 µg/mL (≈ 28.2 µM)
[2]; Human immunodeficiency virus 1, PBMC, read-out: EC50 (EC 50%), HIV-1 92/HT/599, human PBMCs
  EC50: 4.06 µg/mL (≈ 11.7 µM)
[2]; TC/EC at 25%
  Therapeutic Index (TI) 25%: 5.23
[2]; TC/EC at 50%
  Therapeutic Index (TI) 50%: 4.43
[2]; TC/EC at 95%
  Therapeutic Index (TI) 95%: <10.18
[3]
  CC50: > 100 µM
[4]; 0.01 μM
  % CC: 110.7% and 108.3%
  TOXICITY VALUES (Cell Titer 96 - O.D. @ 490/650 nm), SAMPLE: 2.344 O.D. and 1.718 O.D. and 1.852 O.D. and 0.687 O.D. and 1.030 O.D. and 0.777 O.D.
[4]; 0.03 μM
  % CC: 111.8% and 118.7%
  TOXICITY VALUES (Cell Titer 96 - O.D. @ 490/650 nm), SAMPLE: 2.336 O.D. and 1.807 O.D. and 1.831 O.D. and 0.821 O.D. and 1.115 O.D. and 0.798 O.D.
[4]; 0.10 μM
  TOXICITY VALUES (Cell Titer 96 - O.D. @ 490/650 nm), MEAN: 1.952 O.D. and 0.991 O.D.
  % CC: 109.6% and 129.1%
  TOXICITY VALUES (Cell Titer 96 - O.D. @ 490/650 nm), SAMPLE: 2.142 O.D. and 1.855 O.D. and 1.858 O.D. and 1.098 O.D. and 1.053 O.D. and 0.822 O.D.
[4]; 0.32 μM
  TOXICITY VALUES (Cell Titer 96 - O.D. @ 490/650 nm), MEAN: 1.937 O.D. and 1.031 O.D.
  % CC: 108.8% and 134.3%
  TOXICITY VALUES (Cell Titer 96 - O.D. @ 490/650 nm), SAMPLE: 2.234 O.D. and 1.808 O.D. and 1.768 O.D. and 1.094 O.D. and 1.234 O.D. and 0.765 O.D.
[4]; 1.00 μM
  TOXICITY VALUES (Cell Titer 96 - O.D. @ 490/650 nm), MEAN: 1.882 O.D. and 1.010 O.D.
  % CC: 105.7% and 131.5%
  TOXICITY VALUES (Cell Titer 96 - O.D. @ 490/650 nm), SAMPLE: 2.065 O.D. and 1.819 O.D. and 1.762 O.D. and 1.173 O.D. and 1.067 O.D. and 0.789 O.D.
[4]; 3.16 μM
  TOXICITY VALUES (Cell Titer 96 - O.D. @ 490/650 nm), MEAN: 1.914 O.D. and 1.060 O.D.
  % CC: 107.5% and 138.1%
  TOXICITY VALUES (Cell Titer 96 - O.D. @ 490/650 nm), SAMPLE: 2.179 O.D. and 1.770 O.D. and 1.792 O.D. and 1.161 O.D. and 1.175 O.D. and 0.845 O.D.
[4]; 10.0 μM
  TOXICITY VALUES (Cell Titer 96 - O.D. @ 490/650 nm), MEAN: 1.924 O.D. and 0.976 O.D.
  % CC: 108.1% and 127.1%
  TOXICITY VALUES (Cell Titer 96 - O.D. @ 490/650 nm), SAMPLE: 2.172 O.D. and 1.791 O.D. and 1.810 O.D. and 1.001 O.D. and 0.993 O.D. and 0.934 O.D.
[4]; 31.6 μM
  TOXICITY VALUES (Cell Titer 96 - O.D. @ 490/650 nm), MEAN: 1.891 O.D. and 0.979 O.D.
  % CC: 106.2% and 127.5%
  TOXICITY VALUES (Cell Titer 96 - O.D. @ 490/650 nm), SAMPLE: 2.078 O.D. and 1.741 O.D. and 1.855 O.D. and 0.997 O.D. and 1.014 O.D. and 0.926 O.D.
[4]; 100 μM
  TOXICITY VALUES (Cell Titer 96 - O.D. @ 490/650 nm), MEAN: 1.613 O.D. and 0.847 O.D.
  % CC: 90.6% and 110.3%
  TOXICITY VALUES (Cell Titer 96 - O.D. @ 490/650 nm), SAMPLE: 1.651 O.D. and 1.594 O.D. and 0.795 O.D. and 0.787 O.D. and 0.978 O.D.
[4]; PBMC, Cell Titer 96
  TC 90%: >100 µM
  TC 95%: >100 µM
[5]; 0.01 μM
  % VC: 112.3% and 106.4%
  RT Values (cpm), SAMPLE: 10480 cpm and 8884 cpm and 11894 cpm and 25643 cpm and 28270 cpm and 33067 cpm
[5]; 0.03 μM
  % VC: 84.0% and 99.4%
  RT Values (cpm), SAMPLE: 6505 cpm and 8625 cpm and 8243 cpm and 25769 cpm and 26494 cpm and 29027 cpm
[5]; 0.10 μM
  % VC: 68.9% and 122.1%
  RT Values (cpm), SAMPLE: 8064 cpm and 6238 cpm and 4871 cpm and 38847 cpm and 24637 cpm and 36331 cpm
[5]; 0.32 μM
  % VC: 81.3% and 86.3%
  RT Values (cpm), SAMPLE: 8253 cpm and 7009 cpm and 7376 cpm and 18012 cpm and 26707 cpm and 25800 cpm
[5]; 1.00 μM
  % VC: 64.5% and 85.3%
  RT Values (cpm), SAMPLE: 9732 cpm and 5647 cpm and 2583 cpm and 21965 cpm and 22751 cpm and 25042 cpm
[5]; 3.16 μM
  % VC: 27.9% and 43.2%
  RT Values (cpm), SAMPLE: 6132 cpm and 1058 cpm and 586 cpm and 6829 cpm and 9899 cpm and 18609 cpm
[5]; 10.0 μM
  % VC: 6.4% and 12.6%
  RT Values (cpm), SAMPLE: 635 cpm and 579 cpm and 575 cpm and 9437 cpm and 247 cpm and 585 cpm
[5]; 31.6 μM
  % VC: 1.6% and 2.3%
  RT Values (cpm), SAMPLE: 54 cpm and 94 cpm and 290 cpm and 120 cpm and 1345 cpm and 378 cpm
[5]; 100 μM
  % VC: 0.1% and 0.0%
  RT Values (cpm), SAMPLE: 18 cpm and 2 cpm and 0 cpm
[5]; HIV-1 Ba-L in PBMC
  IC50: 2.63 µM
  IC90: 13.3 µM
  IC 95%: 14.0 µM and 23.3 µM
[5]; [6]
  IC50: 1.58 µM
  IC90: 8.26 µM
[5]; TC/IC at 50%
  ANTIVIRAL INDEX (AI) 50%: >63.3 and >38.1
[5]; TC/IC at 90%
  ANTIVIRAL INDEX (AI) 90%: >12.1 and >7.51
[5]; TC/IC at 95%
  ANTIVIRAL INDEX (AI) 95%: >7.14 and >4.30
